US10173983B2, “Fungicidal pyridylamidines” (Syngenta Participations AG, priority 2014, dated 2019)

Columns and labels:
Assay type in all cases: in vivo
[1] = test system: Blumeria graminis f. Sp. tritici (Erysiphe graminis f. sp. tritici); experiment: Blumeria graminis f. sp. tritici / wheat / leaf disc preventative (powdery mildew on wheat); settings: foliar, wheat leaf segments cv. Kanzler, inoculated 1 day after application, assessed 6-8 days after application, compared to untreated, read-out: disease control
Experimental: Blumeria graminis f. Sp. tritici (Erysiphe graminis f. sp. tritici)/Wheat/Leaf Disc Preventative (Powdery Mildew on Wheat) Wheat leaf segments cv. Kanzler were placed on agar in a multiwell plate (24-well format) and sprayed with the formulated test compound diluted in water. The leaf disks were inoculated by shaking powdery mildew infected plants above the test plates 1 day after application. The inoculated leaf disks were incubated at 20° C. and 60% rh under a light regime of 24 h darkness followed by 12 h light/12 h darkness in a climate chamber and the activity of a compound was assessed as percent disease control compared to untreated when an appropriate level of disease damage appears on untreated check leaf segments (6-8 days after application). The following compounds gave at 200 ppm give at least 80% disease control in this test when compared to untreated control leaf disks under the same conditions, which show extensive disease development: […]

[2] = test system: Puccinia recondita f. sp. tritici; experiment: Puccinia recondita f. sp. tritici / wheat / leaf disc preventative (brown rust); settings: foliar, 168 h, wheat leaf segments cv. Kanzler, inoculated 1 day after application, assessed 7-9 days after application, compared to untreated, read-out: disease control
Experimental: Puccinia recondita f. sp. tritici/Wheat/Leaf Disc Preventative (Brown Rust) Wheat leaf segments cv. Kanzler were placed on agar in multiwell plates (24-well format) and sprayed with the formulated test compound diluted in water. The leaf disks were inoculated with a spore suspension of the fungus 1 day after application. The inoculated leaf segments were incubated at 19° C. and 75% rh under a light regime of 12 h light/12 h darkness in a climate cabinet and the activity of a compound was assessed as percent disease control compared to untreated when an appropriate level of disease damage appears in untreated check leaf segments (7-9 days after application). The following compounds gave at 200 ppm gave at least 80% disease control in this test when compared to untreated control leaf disks under the same conditions, which show extensive disease development: […]

[3] = test system: Puccinia recondita f. sp. tritici; experiment: Puccinia recondita f. sp. tritici / wheat / leaf disc curative (brown rust); settings: foliar, wheat leaf segments cv. Kanzler, compound applied 1 day after inoculation, assessed 6-8 days after application, compared to untreated, read-out: disease control
Experimental: Puccinia recondita f. sp. tritici/Wheat/Leaf Disc Curative (Brown Rust) Wheat leaf segments cv. Kanzler are placed on agar in multiwell plates (24-well format). The leaf segments are inoculated with a spore suspension of the fungus. Plates were stored in darkness at 19° C. and 75% rh. The formulated test compound diluted in water was applied 1 day after inoculation. The leaf segments were incubated at 19° C. and 75% rh under a light regime of 12 h light/12 h darkness in a climate cabinet and the activity of a compound was assessed as percent disease control compared to untreated when an appropriate level of disease damage appears in untreated check leaf segments (6-8 days after application). The following compounds gave at 200 ppm gave at least 80% disease control in this test when compared to untreated control leaf disks under the same conditions, which show extensive disease development: […]

Phakopsora pachyrhizi = Phakopsora pachyrhizi on soybean, preventive treatment; settings: 264 h, 1 day preventive, triazole tolerant soybean rust strain, evaluated 11 days after application, compared to untreated, read-out: disease control
Experimental: Phakopsora pachyrhizi on Soybean, Preventive Treatment
The compound activity was tested under 1 day preventive conditions. Soybean plants with a fully enfolded first trifoliate leaf were sprayed with a track sprayer and 50 l/ha spray volume with the test compounds, either solo or in tankmix as shown in the table below. 1 day after application leaf discs were cut from the first trifoliate leaf and placed in multiwell plates on water-agar. 5 leaf discs per treatment where infested with spores of a triazole tolerant soybean rust strain. The multiwell plates where sealed and placed in an incubator 48 h in darkness and 12 h light/dark cycle afterwards. Rust infestation on leaf discs was evaluated visually 11 days after application and average activity calculated in relation to disease severity on untreated check leaf discs.
The following compounds gave at 200 ppm gave at least 80% disease control in this test when compared to untreated control leaf disks under the same conditions, which show extensive disease development: […]

Measured: pest or weed control at 200 ppm

C=CCOCC(C)Oc1nc(C)c(N=CN(C)CC)cc1Cl (centres unmarked) [Q.014, N′-[6-(2-allyloxy-1-methyl-ethoxy)-5-chloro-2-methyl-3-pyridyl]-N-ethyl-N-methyl-formamidine]
≥ 80%: all assays above

CCCOCC(C)Oc1nc(C)c(/N=C/N(C)CC)cc1Br (centres unmarked) [Q.013, N′-[5-bromo-2-methyl-6-(1-methyl-2-propoxy-ethoxy)-3-pyridyl]-N-ethyl-N-methyl-formamidine]
≥ 80%: all assays above

CCN(C)C=Nc1cc(Br)c(OC(C)COc2cccc(C(F)(F)F)c2)nc1C (centres unmarked) [Q.027, N′-[5-bromo-2-methyl-6-[1-methyl-2-[3-(trifluoromethyl)phenoxy]ethoxy]-3-pyridyl]-N-ethyl-N-methyl-formamidine]
≥ 80%: [1] | [3] | Phakopsora pachyrhizi

CCN(C)C=Nc1cc(Br)c(OC(C)COc2ccc(Cl)cc2)nc1C (centres unmarked) [Q.026, N′-[5-bromo-6-[2-(4-chlorophenoxy)-1-methyl-ethoxy]-2-methyl-3-pyridyl]-N-ethyl-N-methyl-formamidine]
≥ 80%: all assays above

C=CCOCC(C)Oc1nc(C)c(N=CN(C)CC)cc1C#N (centres unmarked) [Q.017, N′-[6-(2-allyloxy-1-methyl-ethoxy)-5-cyano-2-methyl-3-pyridyl]-N-ethyl-N-methyl-formamidine]
≥ 80%: all assays above

CCN(C)C=Nc1cc(C#N)c(OC(C)COc2ccc(Cl)cc2)nc1C (centres unmarked) [Q.021, N′-[6-[2-(4-chlorophenoxy)-1-methyl-ethoxy]-5-cyano-2-methyl-3-pyridyl]-N-ethyl-N-methyl-formamidine]
≥ 80%: [1] | [2] | [3]

CCCOCC(C)Oc1nc(C)c(/N=C/N(C)CC)cc1C#N (centres unmarked) [Q.007, N′-[5-cyano-2-methyl-6-(1-methyl-2-propoxy-ethoxy)-3-pyridyl]-N-ethyl-N-methyl-formamidine]
≥ 80%: all assays above

CCCOCC(C)Oc1nc(C)c(N=CN(C)CC)cc1OC(F)F (centres unmarked) [Q.010, N′-[5-(difluoromethoxy)-2-methyl-6-(1-methyl-2-propoxy-ethoxy)-3-pyridyl]-N-ethyl-N-methyl-formamidine]
≥ 80%: all assays above

CCCOCC(C)Oc1ccc(N=CN(C)CC)c(C)n1 (centres unmarked) [Q.012, N-ethyl-N-methyl-N′-[2-methyl-6-(1-methyl-2-propoxy-ethoxy)-3-pyridyl]formamidine]
≥ 80%: [3] | Phakopsora pachyrhizi

CCCOCC(C)Oc1nc(C)c(N=CN(C)C(C)C)cc1Br (centres unmarked) [Q.018, N′-[5-bromo-2-methyl-6-(1-methyl-2-propoxy-ethoxy)-3-pyridyl]-N-isopropyl-N-methyl-formamidine]
≥ 80%: all assays above

CCCOCC(C)Oc1nc(C)c(/N=C/N(C)CC)cc1C(=O)OC (centres unmarked) [Q.019, Methyl 5-[(E)-[ethyl(methyl)amino]methylene-amino]-6-methyl-2-(1-methyl-2-propoxy-ethoxy)pyridine-3-carboxylate]
≥ 80%: [3] | Phakopsora pachyrhizi

CCCOCC(C)Oc1nc(C)c(/N=C/N(C)CC)cc1Cl (centres unmarked) [Q.015, N′-[5-chloro-2-methyl-6-(1-methyl-2-propoxy-ethoxy)-3-pyridyl]-N-ethyl-N-methyl-formamidine]
≥ 80%: all assays above

C=CCOCC(COC)Oc1nc(C)c(N=CN(C)CC)cc1Br (centres unmarked) [Q.016, N′-[6-[1-(allyloxymethyl)-2-methoxy-ethoxy]-5-bromo-2-methyl-3-pyridyl]-N-ethyl-N-methyl-formamidine]
≥ 80%: all assays above

CCN(C)C=Nc1cc(Cl)c(OC(C)COc2cccc(C(F)(F)F)c2)nc1C (centres unmarked) [Q.023, N′-[5-chloro-2-methyl-6-[1-methyl-2-[3-(trifluoromethyl)phenoxy]ethoxy]-3-pyridyl]-N-ethyl-N-methyl-formamidine]
≥ 80%: all assays above

CCN(C)C=Nc1cc(Br)c(OC(C)COc2ccccc2)nc1C (centres unmarked) [Q.028, N′-[5-bromo-2-methyl-6-(1-methyl-2-phenoxy-ethoxy)-3-pyridyl]-N-ethyl-N-methyl-formamidine]
≥ 80%: all assays above

CCN(C)C=Nc1cc(Cl)c(OC(C)COc2ccccc2)nc1C (centres unmarked) [Q.025, N′-[5-chloro-2-methyl-6-(1-methyl-2-phenoxy-ethoxy)-3-pyridyl]-N-ethyl-N-methyl-formamidine]
≥ 80%: all assays above

CCN(C)C=Nc1cc(C#N)c(OC(C)COc2cccc(C(F)(F)F)c2)nc1C (centres unmarked) [Q.020, N′-[5-cyano-2-methyl-6-[1-methyl-2-[3-(trifluoromethyl)phenoxy]ethoxy]-3-pyridyl]-N-ethyl-N-methyl-formamidine]
≥ 80%: all assays above

CCCOCC(C)Oc1nc(C)c(/N=C/N(C)CC)cc1Br (stereo in doubt) [Q.002, N′-[5-bromo-2-methyl-6-[(1S)-1-methyl-2-propoxy-ethoxy]-3-pyridyl]-N-ethyl-N-methyl-formamidine]
≥ 80%: all assays above

CCCOCC(C)Oc1nc(C)c(N=CN(C)CC)cc1C(F)F (centres unmarked) [Q.009, N′-[5-(difluoromethyl)-2-methyl-6-(1-methyl-2-propoxy-ethoxy)-3-pyridyl]-N-ethyl-N-methyl-formamidine]
≥ 80%: all assays above

CCN(C)C=Nc1cc(Cl)c(OC(C)COc2ccc(Cl)cc2)nc1C (centres unmarked) [Q.024, N′-[5-chloro-6-[2-(4-chlorophenoxy)-1-methyl-ethoxy]-2-methyl-3-pyridyl]-N-ethyl-N-methyl-formamidine]
≥ 80%: all assays above

CCN(C)C=Nc1cc(C#N)c(OC(C)COc2ccccc2)nc1C (centres unmarked) [Q.022, N′-[5-cyano-2-methyl-6-(1-methyl-2-phenoxy-ethoxy)-3-pyridyl]-N-ethyl-N-methyl-formamidine]
≥ 80%: [1] | [2] | [3]
